Experiment [1] in a line: Selectivity index, ratio of IC50 for ovine COX1 to IC50 for human COX2.
In experiment [2] the target is T1, Prostaglandin G/H synthase 2 (Homo sapiens, UniProt P35354).
T1 sequence (P35354 whole entry): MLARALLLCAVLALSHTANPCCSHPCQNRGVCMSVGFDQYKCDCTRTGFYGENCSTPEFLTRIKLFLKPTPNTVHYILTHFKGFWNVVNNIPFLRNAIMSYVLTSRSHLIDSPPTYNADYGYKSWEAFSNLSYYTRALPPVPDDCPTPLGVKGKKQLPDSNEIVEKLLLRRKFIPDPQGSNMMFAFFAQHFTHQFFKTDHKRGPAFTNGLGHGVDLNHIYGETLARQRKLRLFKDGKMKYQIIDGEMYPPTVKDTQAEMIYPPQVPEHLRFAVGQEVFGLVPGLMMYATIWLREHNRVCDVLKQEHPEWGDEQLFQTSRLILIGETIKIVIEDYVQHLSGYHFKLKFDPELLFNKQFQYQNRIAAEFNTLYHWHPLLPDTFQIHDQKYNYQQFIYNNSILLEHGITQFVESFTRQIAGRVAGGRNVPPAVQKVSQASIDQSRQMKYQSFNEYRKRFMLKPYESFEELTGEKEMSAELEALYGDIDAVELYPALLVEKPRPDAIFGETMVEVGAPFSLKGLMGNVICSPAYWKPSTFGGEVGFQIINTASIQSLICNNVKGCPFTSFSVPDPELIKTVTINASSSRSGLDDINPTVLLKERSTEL
The experiment is described as follows: Inhibition of human recombinant COX2 by enzyme immuno assay.

The target in experiment [3] is T1, Prostaglandin G/H synthase 2. The experiment is described as follows: Inhibition of human COX2 by fluorescence based assay.
Experiment [4] addresses T2, Prostaglandin G/H synthase 1 (Ovis aries, UniProt P05979).
T2 sequence (P05979 whole entry): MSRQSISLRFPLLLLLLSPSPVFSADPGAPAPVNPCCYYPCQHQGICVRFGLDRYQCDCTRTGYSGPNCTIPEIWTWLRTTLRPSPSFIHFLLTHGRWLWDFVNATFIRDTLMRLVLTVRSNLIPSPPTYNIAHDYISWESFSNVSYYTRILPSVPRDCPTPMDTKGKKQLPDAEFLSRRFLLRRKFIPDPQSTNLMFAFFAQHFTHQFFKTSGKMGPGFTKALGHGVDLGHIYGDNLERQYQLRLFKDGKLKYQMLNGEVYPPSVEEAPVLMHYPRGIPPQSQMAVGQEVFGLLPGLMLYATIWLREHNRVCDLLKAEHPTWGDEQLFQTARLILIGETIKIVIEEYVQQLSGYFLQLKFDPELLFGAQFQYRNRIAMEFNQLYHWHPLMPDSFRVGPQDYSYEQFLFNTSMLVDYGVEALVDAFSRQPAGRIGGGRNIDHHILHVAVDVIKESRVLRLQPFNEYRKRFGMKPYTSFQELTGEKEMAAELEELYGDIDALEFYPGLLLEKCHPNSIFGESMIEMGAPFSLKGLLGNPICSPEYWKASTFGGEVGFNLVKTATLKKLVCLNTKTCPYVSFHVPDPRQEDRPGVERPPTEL
The experiment can be described thus: Inhibition of ovine COX1 by fluorescence based assay.

Experiment [5] addresses T1, Prostaglandin G/H synthase 2. The experiment is described as follows: Inhibition of human recombinant COX2 assessed as reduction in […] production incubated for 10 mins using arachidonic acid substrate by enzyme immuno assay.
Experiment [6] has the same target. The experiment is described as follows: Inhibition of COX2 in human lympho-monocytes suspension assessed as reduction in LPS-induced PGE2 production pre-incubated for 30 mins before LPS stimulation for 24 hrs by EIA method. The experiment is classed as cell-based.
In experiment [7] the target is T2, Prostaglandin G/H synthase 1. The experiment is described as follows: Inhibition of ovine recombinant COX1 by enzyme immuno assay.
Experiment [8] addresses T1, Prostaglandin G/H synthase 2. The experiment can be described thus: Inhibition of COX2 (unknown origin).
For experiment [9], the target named is T3, Prostaglandin G/H synthase 1 (Homo sapiens, UniProt P23219). The experiment is described as follows: Inhibition of COX1 (unknown origin).
Experiment [10] is filed under the species Homo sapiens. The experiment can be described thus: Selectivity index, ratio of IC50 for COX1 (unknown origin) to IC50 for COX2 (unknown origin).
In experiment [11] the target is T2, Prostaglandin G/H synthase 1. The experiment is described as follows: Inhibition of ovine COX1 by enzyme chemiluminescence assay.
Experiment [12] deals with T4, Prostaglandin G/H synthase 2 (Ovis aries, UniProt P79208).
T4 sequence (P79208 whole entry): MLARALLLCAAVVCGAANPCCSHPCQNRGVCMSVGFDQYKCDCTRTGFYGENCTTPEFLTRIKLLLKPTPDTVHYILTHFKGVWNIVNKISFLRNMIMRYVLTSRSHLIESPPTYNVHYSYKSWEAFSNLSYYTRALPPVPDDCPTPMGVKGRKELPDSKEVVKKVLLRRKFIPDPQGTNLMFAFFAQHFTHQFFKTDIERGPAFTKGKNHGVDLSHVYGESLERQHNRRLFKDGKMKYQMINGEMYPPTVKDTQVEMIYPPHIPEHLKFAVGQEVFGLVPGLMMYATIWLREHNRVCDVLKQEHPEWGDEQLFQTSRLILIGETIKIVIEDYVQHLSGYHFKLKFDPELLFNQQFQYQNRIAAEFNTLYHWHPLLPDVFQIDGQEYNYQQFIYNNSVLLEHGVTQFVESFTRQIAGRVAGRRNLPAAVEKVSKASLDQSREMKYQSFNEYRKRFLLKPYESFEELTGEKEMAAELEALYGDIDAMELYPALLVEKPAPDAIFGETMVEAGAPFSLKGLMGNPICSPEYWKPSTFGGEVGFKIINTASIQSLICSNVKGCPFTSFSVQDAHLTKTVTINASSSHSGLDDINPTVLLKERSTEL
The experiment is described as follows: Inhibition of ovine COX2 by enzyme chemiluminescence assay.

For the next experiment, the species on record is Ovis aries. The experiment can be described thus: Selectivity index, ratio of IC50 for ovine COX1 to IC50 for ovine COX2.
Experiment [13] concerns the target T2, Prostaglandin G/H synthase 1. The experiment is described as follows: Inhibition of ovine COX1 using arachidonic acid substrate by TMPD dye based colorimetry.
The target in experiment [14] is T5, Prostaglandin G/H synthase 2 (Ovis aries) (UniProt P79208).
T5 sequence (whole entry): T4 sequence (P79208 whole entry)
The note with it: 10 ug/ml.
Description: Inhibition of ovine COX2 at 10 ug/ml using arachidonic acid substrate by TMPD dye based colorimetry

In experiment [15] the target is T6, Prostaglandin G/H synthase 1 (Ovis aries) (UniProt P05979).
T6 sequence (whole entry): T2 sequence (P05979 whole entry)
The experiment is described as follows: Inhibition of ovine COX1 at 10 ug/ml using arachidonic acid substrate by TMPD dye based colorimetry.

The target of experiment [16] is T3, Prostaglandin G/H synthase 1. The experiment is described as follows: Inhibition of human COX1 assessed as reduction in PGE2 production incubated for 2 mins using arachidonic acid substrate by enzyme immuno assay.
Experiment [17] addresses T1, Prostaglandin G/H synthase 2. The experiment can be described thus: Inhibition of human COX2 assessed as reduction in PGE2 production incubated for 2 mins using arachidonic acid substrate by enzyme immuno assay.
The species named for experiment [18] is Homo sapiens. The experiment can be described thus: Selectivity index, ratio of IC50 for human COX1 to IC50 for human COX2.

T3 sequence (P23219 whole entry): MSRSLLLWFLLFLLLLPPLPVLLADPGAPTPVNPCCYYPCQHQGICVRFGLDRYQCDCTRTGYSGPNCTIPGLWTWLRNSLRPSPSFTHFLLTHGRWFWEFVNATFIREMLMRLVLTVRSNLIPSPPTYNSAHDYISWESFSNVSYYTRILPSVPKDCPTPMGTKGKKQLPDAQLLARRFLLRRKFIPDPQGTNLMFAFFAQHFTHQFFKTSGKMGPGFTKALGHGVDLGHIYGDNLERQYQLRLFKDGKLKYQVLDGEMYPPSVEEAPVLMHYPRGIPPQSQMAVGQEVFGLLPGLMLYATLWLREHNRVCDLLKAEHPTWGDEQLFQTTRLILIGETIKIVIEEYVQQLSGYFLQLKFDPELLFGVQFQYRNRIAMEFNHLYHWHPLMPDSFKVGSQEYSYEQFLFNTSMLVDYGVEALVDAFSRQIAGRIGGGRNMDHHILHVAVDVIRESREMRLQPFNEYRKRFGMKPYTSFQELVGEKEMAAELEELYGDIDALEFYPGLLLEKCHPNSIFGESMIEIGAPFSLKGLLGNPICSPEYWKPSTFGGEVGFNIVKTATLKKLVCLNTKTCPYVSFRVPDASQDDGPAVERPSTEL

As a reminder, the IC50 is the point on the concentration scale where inhibition reaches its midpoint. As for `CS(=O)(=O)c1ccc(-n2nc(-c3ccc(O)cc3)cc2-c2ccc(C(F)(F)F)cc2)cc1`, the Ratio IC50 in [1] is 6.08. For the same compound, the IC50 in experiment [2] is 970 nM.
On to `Cc1ccc(-c2c(-c3ccc(S(C)(=O)=O)cc3)c3cccc4ccn2c43)cc1`, for which the IC50 in experiment [3] was 20 nM; in [4] it was > 100000 nM. In addition, the Ratio IC50 in experiment [1] is > 5000.
Turning to `CS(=O)(=O)c1ccc(C2NN=C(c3ccc([N+](=O)[O-])cc3)O2)cc1` (stereo not given), the Ratio IC50 in experiment [1] is 133. The IC50 in experiment [5] was found to be 480 nM.
With `Cc1ccc(Nc2c(F)cccc2Cl)c(Cc2nnn[nH]2)c1`, in experiment [6], the IC50 turned out to be 14 nM.
With `CCOc1ccc(-c2cc(-c3ccc(C(F)(F)F)cc3)n(-c3ccc(S(C)(=O)=O)cc3)n2)cc1`, the Ratio IC50 in [1] was found to be 5.77. For the same compound, the figures for the half-maximal inhibitory concentration (IC50) in experiment [7] and in [2] were 5600 nM and 970 nM, respectively.
Consider `CS(=O)(=O)c1ccc(C2C(c3ccccc3)=NOC23COc2ccccc2C3=O)cc1` (stereo not given), for which the IC50 in experiment [8] is 90 nM; in experiment [9], 10500 nM. Also, in the experiment filed under Homo sapiens [10], the Ratio IC50 was 116.
`CS(=O)(=O)c1ccc(-c2cc(Cn3ccnc3)c3ccc4c(c3n2)CCCC4)cc1`: the IC50 was 34500 nM in experiment [11] and 63 nM in [12]. In addition, the Ratio IC50 in the experiment filed under Ovis aries is 548.
Consider `Cc1ccc(-c2nn(Cc3nnc(-c4ccccc4[N+](=O)[O-])o3)c(=O)c3ccccc23)cc1C`, for which the IC50 in experiment [13] was > 50000 nM.
A word on the inhibition: it is how much of the control response was suppressed. Lower therefore signals a response near the control. For the compound `Cc1cc(C)c2c(n1)nn1c(/C=C/c3ccc([N+](=O)[O-])cc3)c(C)[nH]c21`, the Ratio IC50 in the experiment listed under Ovis aries is 133. Moreover, it took 63800 nM to reach half-maximal inhibition in [13] (IC50). Besides, the inhibition in experiment [14] was found to be 76%; in [15] it was 3.92%.
For the compound `NS(=O)(=O)c1ccc(N2N=C(c3ccc(N4CCOCC4)cc3)CC2c2ccc(F)cc2F)cc1` (stereo not given), the results for the IC50 in experiment [16] and in [17] were 36100 nM and 80 nM, respectively. Moreover, in the experiment listed under Homo sapiens [18], the Ratio IC50 is 451.

Source of the values: ChEMBL document CHEMBL4138061, “Structure-activity relationships for the synthesis of selective cyclooxygenase 2 inhibitors: an overview (2009-2016)” (Medchemcomm, 2017).
